For one data set, the system named is chikungunya viruses. It is filed as cell-based.
The test system of the next data set is hepatitis B. It is filed as cell-based.
For the next data set, the system named is rift valley fever virus. Format: cell-based.
The subject of a further data set is hepatitis C virus. It is filed as cell-based.
Data set [1] deals with nun small cell lung cancer mice model. Description: nun small cell lung cancer mice model. As to conditions: 80 mg/kg/day, China Tongi medical university. It is filed as in vivo.
The test system of the next data set is MERS coronavirus. It is filed as cell-based.
The subject of data set [2] is hand foot mouth disease mice model. The experiment in a line: hand foot mouth disease mice model. It is filed as in vivo. As to conditions: 320 mg/kg/day, China food and drug inspection Ins.
For the next data set, the system named is human cytomegalovirus. Format: cell-based.
Another data set deals with influenza A H1N1 viruses. It is filed as cell-based.
In the next data set the test system is yellow fever virus. Format: cell-based.
In a further data set the test system is poliovirus. Format: cell-based.
A further data set relates to Herpes simplex virus 1. It is filed as cell-based.
The next data set deals with dengue viruses. Format: cell-based.
The subject of another data set is tacaribe virus. Format: cell-based.
Data set [3] has as its system respiratory syncytial viruses. It is filed as cell-based.
Data set [4] concerns pancreatic cancer Mia PaCa2 cell. Format: cell-based.
A further data set relates to vaccinia virus. It is filed as cell-based.
Data set [5] concerns Venezuelan equine encephalitis viruses. Format: cell-based.
For data set [6], the system named is human primary white cells.

This is an account of results in patent US20180015072A1, “Tryptophan is a pro-drug for infectious diseases and cancers” (priority 2016, published 2018).

Each structure is given as a SMILES string.

`OC[C@H]1O[C@@H](Oc2c[nH]c3ccccc23)[C@H](O)[C@@H](O)[C@@H]1O` [Indican]: the “inhibition of chikungunya viruses” value with chikungunya viruses is “inhibits”. Further, in the data set on hepatitis B, the “function against hepatitis B” value was “does not show function”. For the same compound, the “inhibition of rift valley fever virus” value in the data set on rift valley fever virus was “inhibit”. Also, in the data set on hepatitis C virus, the “inhibition of hepatitis C virus” value was “inhibits”. In addition, the “prevention and early stage treatment function in lung cancer mice model” value in data set [1] is “significant prevention and early stage treatment function”. Besides, the “inhibition of MERS coronavirus” value in the data set on MERS coronavirus is reported as “inhibits”. Moreover, the “function in hand foot mouth disease mice model” value in data set [2] is given as “significant function”. In addition, the “inhibition of human cytomegalovirus” value in the data set with human cytomegalovirus is “inhibit”. Besides, the “inhibition of influenza A H1N1 viruses” value with influenza A H1N1 viruses is on record as “inhibits”. Besides, the “inhibition of yellow fever virus” value with yellow fever virus is recorded as “inhibits”. In the data set with poliovirus, the inhibition of poliovirus entry is on record as “inhibit”. For the same compound, the “inhibition of Herpes simplex virus 1” value with Herpes simplex virus 1 was “inhibit”. In addition, in the data set with dengue viruses, the “inhibition of dengue viruses” value is given as “inhibits”. Besides, in the data set on tacaribe virus, the “inhibition of tacaribe virus” value was “inhibit”. For the same compound, the “inhibition of respiratory syncytial viruses” value in [3] is “inhibits”. Further, the “inhibition of Mia PaCa2 cell growth” value in data set [4] is “inhibit”. Besides, the “inhibition of vaccinia virus” value in the data set with vaccinia virus is reported as “inhibit”. Besides, the “inhibition of Venezuelan equine encephalitis viruses” value in [5] is “inhibits”.
Regarding `N[C@@H](Cc1c[nH]c2ccccc12)C(=O)O` [Tryptophan], the “inhibition of rift valley fever virus” value with rift valley fever virus is given as “inhibit”. Besides, the “prevention and early stage treatment function in lung cancer mice model” value in data set [1] is “significant prevention and early stage treatment function”. Further, the “function in hand foot mouth disease mice model” value in data set [2] is listed as “significant function”. Besides, the “inhibition of human cytomegalovirus” value in the data set on human cytomegalovirus is recorded as “inhibit”. In the data set with poliovirus, the inhibition of poliovirus result is given as “inhibit”. The “inhibition of Herpes simplex virus 1” value with Herpes simplex virus 1 is recorded as “inhibit”. Besides, the “inhibition of tacaribe virus” value in the data set on tacaribe virus is on record as “inhibit”. Moreover, in [4], the “inhibition of Mia PaCa2 cell growth” value is listed as “inhibit”. Further, in the data set on vaccinia virus, the “inhibition of vaccinia virus” value is recorded as “inhibit”. For the same compound, the “safety for human primary white cells” value in data set [6] was “safe”.
